Source: PMC3832525, “A Cell-Free Fluorometric High-Throughput Screen for Inhibitors of Rtt109-Catalyzed Histone Acetylation” (PLoS ONE, 2013)

Tests used:
[1] = system: Rtt109; set-up: method as in PMID 18568037; settings: ref [11]; cited from earlier work
[2] = molecular target: T1, Rtt109-Vps75 complex (Saccharomyces cerevisiae, UniProt Q07794); assay: CPM-based fluorometric Rtt109-Vps75 HTS / dose-response assay; assay type: biochemical, S. cerevisiae
T1 construct: using two full-length physiologically relevant protein complexes; made in house
T1 sequence (Q07794 1-436): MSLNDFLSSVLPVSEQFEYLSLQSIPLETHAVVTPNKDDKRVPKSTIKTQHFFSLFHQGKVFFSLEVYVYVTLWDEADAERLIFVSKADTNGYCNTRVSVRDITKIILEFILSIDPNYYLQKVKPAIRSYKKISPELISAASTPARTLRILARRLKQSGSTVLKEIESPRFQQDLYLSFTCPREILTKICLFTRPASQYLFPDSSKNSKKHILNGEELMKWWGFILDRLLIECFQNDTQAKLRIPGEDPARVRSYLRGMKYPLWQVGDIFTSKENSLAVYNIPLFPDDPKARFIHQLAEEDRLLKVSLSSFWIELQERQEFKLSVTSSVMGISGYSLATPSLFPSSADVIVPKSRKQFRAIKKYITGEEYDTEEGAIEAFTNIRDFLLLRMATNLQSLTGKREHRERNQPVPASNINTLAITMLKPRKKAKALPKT
T1 sequence (P53853 1-264 partner): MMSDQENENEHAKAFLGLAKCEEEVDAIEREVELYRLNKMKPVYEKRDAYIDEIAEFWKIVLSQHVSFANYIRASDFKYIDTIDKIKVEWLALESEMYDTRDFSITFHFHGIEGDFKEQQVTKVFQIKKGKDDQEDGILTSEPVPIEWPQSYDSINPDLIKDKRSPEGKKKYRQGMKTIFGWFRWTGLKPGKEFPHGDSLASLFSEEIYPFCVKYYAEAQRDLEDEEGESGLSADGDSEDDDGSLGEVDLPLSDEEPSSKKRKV
Description: (§1) Compounds selected for dose-response analyses were tested in duplicate at eight compound concentrations, ranging from 40 nM to 125 µM final compound concentrations. Plate controls, dispensing steps and general assay procedures were unchanged from the aforementioned HTS procedures. Slot blots were performed using standard techniques with a Bio-Rad Bio-Dot SF microfiltration apparatus. Membranes were imaged with a LI-COR Odyssey and analyzed using Image Studio (LI-COR Biosciences). For the slot blot experiments, the assay plates included an additional plate control consisting of the Rtt109-Vps75 and Asf1-dH3-H4 complexes and no acetyl-CoA. Dose-response and slot blot experiments were replicated at least three times by independent experiments.

[3] = molecular target: T2, Rtt109-catalyzed histone acetylation (H3K56ac, H3K27ac, H3K9ac) (Saccharomyces cerevisiae, UniProt Q07794); assay: Orthogonal antibody-based slot blot assay of histone acetylation; assay type: biochemical, S. cerevisiae; settings: reaction aliquots
T2 construct: using two full-length physiologically relevant protein complexes; made in house
T2 sequence (Q07794 1-436): T1 sequence (Q07794 1-436)
T2 sequence (P53853 1-264 partner): T1 sequence (P53853 1-264 partner)
Description: as §1
This method utilizes modification-specific antibodies to detect changes in the actual histone acetylation, rather than the CoA by-product. […] Equal protein content was verified by Ponceau S staining (Figure 5B).

[4] = system: β-lactamase; settings: 10 µM
[5] = system: p300; settings: ref [69], [70]; cited from earlier work
[6] = system: PCAF; settings: ref [69], [70]; cited from earlier work

For CC(=O)N[C@@H](CCCCNC(=O)CSCCNC(=O)CCNC(=O)[C@H](O)C(C)(C)COP(=O)(O)OP(=O)(O)OC[C@H]1O[C@@H](n2cnc3c(N)ncnc32)[C@H](O)[C@@H]1OP(=O)(O)O)C(N)=O [Lys-CoA], the “activity versus Rtt109” value [1] is listed as “have not shown activity”.
For O=C(O)C1=CC(=C(c2ccc(O)c(C(=O)O)c2)c2ccc(O)c(C(=O)O)c2)C=CC1=O [ATA, aurintricarboxylic acid], the “signal reduction in HTS compound control wells” value ([2]; 10 µM final concentration) was 50%.
In the case of C=C(C)[C@@H](CC=C(C)C)C[C@@]12C[C@@H](CC=C(C)C)C(C)(C)[C@@](CC=C(C)C)(C(=O)C(C(=O)c3ccc(O)c(O)c3)=C1O)C2=O [garcinol], the “H3K9ac by slot blot” value ([3]; modification-specific antibody) is reported as “dose-dependent decreases”, the “H3K27ac by slot blot” value ([3]; modification-specific antibody) is reported as “dose-dependent decreases” and the “H3K56ac by slot blot” value ([3]; modification-specific antibody) is reported as “dose-dependent decreases”. The “inhibition of β-lactamase activity, detergent present” value ([4]; 0.01% Triton X-100) was “no such inhibition was observed”, the “inhibition of β-lactamase activity, detergent-free” value ([4]; absence of detergent) was “only modest inhibition” and the IC50 [5] was 7 µM. For the same compound, the IC50 [6] was […].
In the case of OC(Cn1cncn1)(Cn1cncn1)c1ccc(F)cc1F [fluconazole], the “activity against Rtt109-catalyzed histone acetylation in the CPM-based assay” value ([2]; dose-response, negative compound control) is reported as “but not fluconazole, showed modest activity” and the “histone acetylation by slot blot” value [3] is reported as “did not show any measureable decrease”.
